Data published in patent US8217035B2, “Pyrimidine derivatives used as PI-3-kinase inhibitors” (Novartis AG, priority 2006, dated 2012).
Where two headings read alike, the source gives them in different places.

How the values were obtained:
PI3 kinase alpha = PI3 kinase alpha (Homo sapiens, UniProt P42336); experiment: PI3K ATP depletion assay (Biological Method 1, Assay 3; KinaseGlo luminescence); assay type: biochemical; conditions: ATP depletion assay, read-out: PI3 Kinase Alpha, IC50
Procedure, shortened: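 Compound in DMSO was mixed with 10 nM PI3 kinase and 5 μg/mL phosphatidylinositol, and the reaction was started with 2 μM ATP. It ran to about 50% ATP depletion and was stopped with KinaseGlo.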

[1] = tested on: pSer473 Akt in A2780 cells; experiment: pSer473 Akt assay to monitor PI3K pathway in A2780 cells (Biological Method 2, MSD); assay type: cell-based; conditions: Homo sapiens, inhibition of Akt phosphorylation
Procedure, shortened: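 A2780 ovarian cancer cells in DMEM/10% FBS were treated with compound for 1 h at 37 °C, then lysed. pSer473-Akt and total Akt were measured by MSD electrochemiluminescence immunoassay. The pSer473/total Akt ratio gave % inhibition versus DMSO, from which EC50 was derived.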

[2] = tested on: A2780 ovarian cancer cells; experiment: Cellular proliferation in A2780 cells, Cell Titer Glo (Biological Method 4); assay type: cell-based; conditions: Homo sapiens
Procedure, shortened: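 A2780 cells seeded at 1,000/well in DMEM with 10% FBS, at least 2 h before compound, then exposed 72 h at 37 °C, 5% CO2. Viable cells measured by Cell Titer Glo luminescence; EC50 calculated from duplicate conditions.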

[3] = ovarian cancer cell line A2780, Biological Method 4

PI3 kinase alpha, sequence (P42336 whole entry): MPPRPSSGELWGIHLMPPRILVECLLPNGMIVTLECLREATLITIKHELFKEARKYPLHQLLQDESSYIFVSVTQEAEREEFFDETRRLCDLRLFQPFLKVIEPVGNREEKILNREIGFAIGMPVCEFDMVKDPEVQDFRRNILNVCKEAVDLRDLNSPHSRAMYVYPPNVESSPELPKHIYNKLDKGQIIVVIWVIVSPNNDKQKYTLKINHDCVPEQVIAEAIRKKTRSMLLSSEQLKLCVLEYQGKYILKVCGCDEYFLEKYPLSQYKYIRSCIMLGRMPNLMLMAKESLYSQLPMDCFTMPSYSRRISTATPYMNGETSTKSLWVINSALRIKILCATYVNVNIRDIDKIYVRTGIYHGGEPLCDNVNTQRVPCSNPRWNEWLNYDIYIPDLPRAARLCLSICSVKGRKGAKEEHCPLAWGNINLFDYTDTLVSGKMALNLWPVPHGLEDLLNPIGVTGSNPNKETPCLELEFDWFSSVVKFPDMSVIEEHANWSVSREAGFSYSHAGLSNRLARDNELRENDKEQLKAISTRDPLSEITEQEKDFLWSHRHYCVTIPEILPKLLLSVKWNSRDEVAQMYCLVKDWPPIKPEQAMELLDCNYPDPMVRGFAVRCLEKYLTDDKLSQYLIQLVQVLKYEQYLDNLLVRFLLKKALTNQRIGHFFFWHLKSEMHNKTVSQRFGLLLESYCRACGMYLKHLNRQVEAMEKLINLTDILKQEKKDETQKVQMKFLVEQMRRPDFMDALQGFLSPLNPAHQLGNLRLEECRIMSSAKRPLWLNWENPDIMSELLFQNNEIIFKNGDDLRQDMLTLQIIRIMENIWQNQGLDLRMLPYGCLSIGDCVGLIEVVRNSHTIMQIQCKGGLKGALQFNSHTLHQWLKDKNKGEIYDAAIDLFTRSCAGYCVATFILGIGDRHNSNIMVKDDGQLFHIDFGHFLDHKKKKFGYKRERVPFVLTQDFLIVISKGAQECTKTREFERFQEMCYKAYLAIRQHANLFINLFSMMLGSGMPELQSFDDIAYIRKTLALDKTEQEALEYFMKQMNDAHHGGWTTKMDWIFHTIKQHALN
PI3 kinase alpha, sequence (P27986 whole entry partner): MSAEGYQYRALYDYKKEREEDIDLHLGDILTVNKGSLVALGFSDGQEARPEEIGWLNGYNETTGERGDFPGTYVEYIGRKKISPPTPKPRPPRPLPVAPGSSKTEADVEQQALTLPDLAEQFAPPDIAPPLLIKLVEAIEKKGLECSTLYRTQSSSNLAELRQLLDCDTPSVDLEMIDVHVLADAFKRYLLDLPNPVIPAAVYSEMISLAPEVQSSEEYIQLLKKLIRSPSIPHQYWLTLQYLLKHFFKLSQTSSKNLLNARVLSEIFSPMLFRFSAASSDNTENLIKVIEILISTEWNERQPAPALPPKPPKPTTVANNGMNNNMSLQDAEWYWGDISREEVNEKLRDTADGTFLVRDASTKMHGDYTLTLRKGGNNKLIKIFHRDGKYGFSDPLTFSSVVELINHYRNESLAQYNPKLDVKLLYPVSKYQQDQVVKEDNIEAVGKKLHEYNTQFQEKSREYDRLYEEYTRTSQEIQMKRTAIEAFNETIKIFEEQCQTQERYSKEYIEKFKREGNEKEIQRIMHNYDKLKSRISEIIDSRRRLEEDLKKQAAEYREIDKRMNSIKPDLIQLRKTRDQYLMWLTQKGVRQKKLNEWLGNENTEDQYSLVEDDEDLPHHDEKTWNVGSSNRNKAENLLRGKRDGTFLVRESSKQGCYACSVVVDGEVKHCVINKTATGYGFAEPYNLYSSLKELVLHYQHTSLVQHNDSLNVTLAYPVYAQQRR

IC50 (PI3 kinase alpha) | EC50 ([1]; A2780 cells) | EC50 ([2]; ovarian cancer cell line A2780) | IC50 (PI3 kinase alpha; Biological Method 1) | EC50 ([1]; A2780, Biological Method 2) | EC50 [2, 3] | EC50 ([1]; A2780) | SMILES
 |  |  | < 1000 nM | < 1000 nM | < 1000 nM |  | COc1cc(N)ncc1-c1cc(Nc2cnc3ccccc3c2)nc(N2CCOCC2)n1 [Compound 200]
 |  |  | < 1000 nM | < 1000 nM | < 1000 nM |  | Cc1cc(N)ncc1-c1cc(Nc2cnc3ccccc3c2)nc(N2CCOCC2)n1 [Compound 201]
 |  |  | < 1000 nM | < 1000 nM | < 1000 nM |  | Nc1ncc(-c2cc(Nc3cnc4ccccc4c3)nc(N3CCOCC3)n2)cc1F [Compound 202]
 |  |  | < 1000 nM | < 1000 nM | < 25000 nM |  | CC(C)Oc1ncccc1Nc1cc(-c2cnc(N)cc2C(F)(F)F)nc(N2CCOCC2)n1 [Compound 204]
 |  |  | < 1000 nM | < 1000 nM | < 10000 nM |  | CC(=O)Nc1cc(-c2cnc(N)nc2)nc(N2CCOCC2)n1 [Compound 205]
 |  |  | < 1000 nM | < 1000 nM | < 1000 nM |  | COc1ccc2ncc(Nc3cc(-c4cnc(N)nc4)nc(N4CCOCC4)n3)cc2c1 [Compound 206]
 |  |  | < 1000 nM | < 10000 nM | < 1000 nM |  | Nc1cc(C(F)(F)F)c(-c2cc(Nc3cccc(S(=O)(=O)N4CCCCC4)c3)nc(N3CCOCC3)n2)cn1 [Compound 207]
 |  |  | < 1000 nM | < 10000 nM | < 25000 nM |  | CS(=O)(=O)c1ccc(Nc2cc(-c3cnc(N)[nH]c3=O)nc(N3CCOCC3)n2)cn1 [Compound 208]
 |  |  | < 1000 nM | < 10000 nM | < 10000 nM |  | N#Cc1cc(-c2cnc(N)cc2C(F)(F)F)nc(N2CCOCC2)n1 [Compound 209]
 |  |  | < 1000 nM | < 10000 nM | < 10000 nM |  | Nc1cc(C(F)(F)F)c(-c2cc(N3CCOc4ccccc43)nc(N3CCOCC3)n2)cn1 [Compound 210]
 |  |  | < 1000 nM | < 10000 nM | < 1000 nM |  | COc1ccc2ncc(Nc3cc(-c4ccc(N)nc4)nc(N4CCOCC4)n3)cc2c1 [Compound 211]
 |  |  | < 1000 nM | < 10000 nM | < 25000 nM |  | Cc1c(Nc2ccc(OC(CO)CO)nc2)nc(N2CCOCC2)nc1-c1cnc(N)nc1 [Compound 212]
 |  |  | < 1000 nM | < 10000 nM | < 1000 nM |  | CCc1c(Nc2cnc3ccccc3c2)nc(N2CCOCC2)nc1-c1ccc(N)nc1 [Compound 213]
 |  |  | < 1000 nM | < 10000 nM | < 25000 nM |  | CS(=O)(=O)c1ccc(Nc2cc(-c3cnc(N)nc3N)nc(N3CCOCC3)n2)cn1 [Compound 214]
 |  |  | < 1000 nM | < 10000 nM | < 10000 nM |  | Cc1c(-c2cnc(N)nc2)nc(N2CCOCC2)nc1-c1ccnc(Nc2ncc(-c3ccccc3)s2)c1 [Compound 215]
< 1000 nM |  | < 10000 nM |  |  |  | < 1000 nM | CC(C)N1CCC(Oc2ccc(Nc3cc(-c4cnc(N)cc4C(F)(F)F)nc(N4CCOCC4)n3)cc2)CC1 [Compound 552]
< 1000 nM |  | < 1000 nM |  |  |  | < 1000 nM | COc1cc(Nc2cc(-c3cnc(N)cc3C(F)(F)F)nc(N3CCOCC3)n2)ccc1OC1CCN(C(C)C)CC1 [Compound 553]

The next lines start with the compound.

SMILES | IC50 (PI3 kinase alpha) | EC50 ([1]; A2780 cells) | EC50 ([2]; ovarian cancer cell line A2780) | IC50 (PI3 kinase alpha; Biological Method 1) | EC50 ([1]; A2780, Biological Method 2) | EC50 [2, 3] | EC50 ([1]; A2780)
Nc1ncc(-c2cc(Nc3ccncc3C(F)(F)F)nc(N3CCOCC3)n2)c(C(F)(F)F)n1 [Compound 158] | < 1000 nM | < 1000 nM | < 1000 nM |  |  |  | 
CS(=O)(=O)Nc1ccccc1-c1cc(-c2cnc(N)cc2C(F)(F)F)nc(N2CCOCC2)n1 [Compound 159] | < 1000 nM | < 1000 nM | < 10000 nM |  |  |  | 
COc1nc(N)ncc1-c1cc(Nc2cnc3ccccc3c2)nc(N2CCOCC2)n1 [Compound 161] | < 1000 nM | < 1000 nM | < 1000 nM |  |  |  | 
Nc1ccc(-c2cc(Nc3cccc(-c4cnco4)c3)nc(N3CCOCC3)n2)cn1 [Compound 163] | < 1000 nM | < 1000 nM | < 10000 nM |  |  |  | 
Nc1ncc(-c2cc(Nc3ccc4c(c3)OCCO4)nc(N3CCOCC3)n2)c(C(F)(F)F)n1 [Compound 164] | < 1000 nM | < 1000 nM | < 1000 nM |  |  |  | 
CS(=O)(=O)c1cccc(-c2cc(-c3cnc(N)cc3Cl)nc(N3CCOCC3)n2)c1 [Compound 165] | < 1000 nM | < 1000 nM | < 1000 nM |  |  |  | 
NC(=O)c1cccc(Nc2cc(-c3ccc(N)nc3)nc(N3CCOCC3)n2)c1 [Compound 166] | < 1000 nM | < 1000 nM | < 10000 nM |  |  |  | 
CC(C)OC(=O)N1CCC[C@H](Oc2cc(-c3cnc(N)nc3N)nc(N3CCOCC3)n2)C1 [Compound 167] | < 1000 nM | < 1000 nM | < 10000 nM |  |  |  | 
Nc1ccc(-c2cc(-n3ncc4c(N)cccc43)nc(N3CCOCC3)n2)cn1 [Compound 168] | < 1000 nM | < 1000 nM | < 1000 nM |  |  |  | 
Nc1ccc(-c2cc(Nc3cnc4ccccc4c3)nc(N3CCOCC3)n2)c(F)n1 [Compound 169] | < 1000 nM | < 1000 nM | < 1000 nM |  |  |  | 
CS(=O)(=O)Nc1ncccc1-c1cc(-c2cnc(N)cc2Cl)nc(N2CCOCC2)n1 [Compound 170] | < 1000 nM | < 1000 nM | < 1000 nM |  |  |  | 
Cn1cnnc1-c1cccc(Nc2cc(-c3cnc(N)cc3C(F)(F)F)nc(N3CCOCC3)n2)c1 [Compound 171] | < 1000 nM | < 1000 nM | < 1000 nM |  |  |  | 
CC(=O)c1ccccc1Nc1cc(-c2ccc(N)nc2)nc(N2CCOCC2)n1 [Compound 172] | < 1000 nM | < 1000 nM | < 10000 nM |  |  |  | 
CS(=O)(=O)c1ccc(Nc2cc(-c3cnc(N)cc3C(F)(F)F)nc(N3CCOCC3)n2)cc1 [Compound 173] | < 1000 nM | < 1000 nM | < 10000 nM |  |  |  | 
CC(=O)c1cccc(Nc2cc(-c3ccc(N)nc3)nc(N3CCOCC3)n2)c1 [Compound 174] | < 1000 nM | < 1000 nM | < 10000 nM |  |  |  | 
Nc1ncc(-c2cc(OC3CCN(C(=O)OCc4ccccc4)CC3)nc(N3CCOCC3)n2)c(C(F)(F)F)n1 [Compound 176] | < 1000 nM | < 1000 nM | < 10000 nM |  |  |  | 
COc1ccc2ncc(Nc3nc(N4CCOCC4)nc(-c4cnc(N)nc4)c3C)cc2c1 [Compound 177] | < 1000 nM | < 1000 nM | < 1000 nM |  |  |  | 

SMILES | IC50 (PI3 kinase alpha) | EC50 ([1]; A2780 cells) | EC50 ([2]; ovarian cancer cell line A2780) | IC50 (PI3 kinase alpha; Biological Method 1) | EC50 ([1]; A2780, Biological Method 2) | EC50 [2, 3] | EC50 ([1]; A2780)
CCOc1cc(Nc2cc(-c3cnc(N)cc3C(F)(F)F)nc(N3CCOCC3)n2)ccn1 [Compound 178] | < 1000 nM | < 1000 nM | < 10000 nM |  |  |  | 
N#Cc1ccc(Nc2cc(-c3ccc(N)nc3)nc(N3CCOCC3)n2)cc1 [Compound 179] | < 1000 nM | < 1000 nM | < 10000 nM |  |  |  | 
Nc1ccc(-c2cc(Nc3ccccc3N3CCOCC3)nc(N3CCOCC3)n2)cn1 [Compound 180] | < 1000 nM | < 1000 nM | < 10000 nM |  |  |  | 
Nc1ccc(-c2cc(Nc3cnc4ccc(OCCN5CCCC5)cc4c3)nc(N3CCOCC3)n2)cn1 [Compound 181] | < 1000 nM | < 1000 nM | < 1000 nM |  |  |  | 
Nc1ccc(-c2cc(Nc3ccncc3)nc(N3CCOCC3)n2)cn1 [Compound 184] | < 1000 nM | < 1000 nM | < 1000 nM |  |  |  | 
Cc1nc(N)ncc1-c1nc(N2CCOCC2)nc(Nc2cnc3ccccc3c2)c1C [Compound 185] | < 1000 nM | < 1000 nM | < 1000 nM |  |  |  | 
Nc1ncc(-c2cc(O[C@H]3CCCN(C(=O)OC4CCCC4)C3)nc(N3CCOCC3)n2)c(N)n1 [Compound 186] | < 1000 nM | < 1000 nM | < 10000 nM |  |  |  | 
Nc1ccc(-c2cc(Nc3ccccc3S(N)(=O)=O)nc(N3CCOCC3)n2)cn1 [Compound 187] | < 1000 nM | < 1000 nM | < 10000 nM |  |  |  | 
CC(C)N1CC[C@H](Oc2ccc(Nc3cc(-c4cnc(N)cc4C(F)(F)F)nc(N4CCOCC4)n3)cn2)C1 [Compound 188] | < 1000 nM | < 1000 nM | < 10000 nM |  |  |  | 
Nc1ncc(-c2cc(NC(=O)c3cccnc3)nc(N3CCOCC3)n2)cn1 [Compound 189] | < 1000 nM | < 1000 nM | < 10000 nM |  |  |  | 
Nc1ccc(-c2cc(Nc3ccc(S(N)(=O)=O)cc3)nc(N3CCOCC3)n2)cn1 [Compound 190] | < 1000 nM | < 1000 nM | < 10000 nM |  |  |  | 
N#Cc1cnccc1Nc1cc(-c2ccc(N)nc2)nc(N2CCOCC2)n1 [Compound 191] | < 1000 nM | < 1000 nM | < 10000 nM |  |  |  | 
Cc1c(-c2ccc(Nc3ncc(-c4ccccc4)s3)nc2)nc(N2CCOCC2)nc1-c1cnc(N)nc1 [Compound 194] | < 1000 nM | < 1000 nM | < 10000 nM |  |  |  | 
Nc1ccc(-c2cc(Nc3cnc4ccccc4c3)nc(N3CCOCC3)n2)c(Cl)n1 [Compound 195] | < 1000 nM | < 1000 nM | < 1000 nM |  |  |  | 
Nc1ccc(-c2cc(Nc3ccncc3F)nc(N3CCOCC3)n2)cn1 [Compound 196] | < 1000 nM | < 1000 nM | < 1000 nM |  |  |  | 
NC(=O)c1ccc(Nc2cc(-c3ccc(N)nc3)nc(N3CCOCC3)n2)cc1 [Compound 197] | < 1000 nM | < 1000 nM | < 10000 nM |  |  |  | 
COc1ccc(Nc2cc(-c3cnc(N)cc3C(F)(F)F)nc(N3CCOCC3)n2)cn1 [Compound 199] |  |  |  | < 1000 nM | < 1000 nM | < 10000 nM | 
